Holding throughout (type): in vivo
The subject of experiment [1] is Tfr1^hrt/hrt mice. The experiment is described as follows: NR rescue experiment, survival of Tfr1^hrt/hrt mice. The text has this:
129/SvEv mice bearing a floxed Tfrc allele were crossed with transgenic C57BL/6 mice expressing Cre recombinase under the control of the a-MyHC promoter. Backcrossing was with 129/SvEv mice for more than 10 generations and after the initial phenotypic characterization, all studies used mice with a homogeneous 129/SvEv background. Animals were genotyped by polymerase chain reaction (PCR) using genomic DNA from toe clips. Primers for Tfrc alleles, Cre, Hjv alleles, and Rosa26 are described in Table 1.
One-way ANOVA was performed for comparisons between two means, including when the comparison was between the means of WT and Tfr1^hrt/hrt. Survival analysis was performed using Logrank in Graphpad software. P<0.05 was considered statistically significant.
An independent statistical analysis for survival analysis was also performed as described below.
(§1) Survival time was modeled as follows: Tij=μ+Bj+sij
(§2) Where Tij was the survival time (in days) for the i-th mouse in the j-th group. The model explained this in terms of a baseline mean m, an effect bj for the j-th group (relative to baseline) and inter-mouse variation eij. The model was fit using ordinary least squares (1-way ANOVA).
(§3) For the NR rescue experiment, the baseline was Tfr1^hrt/hrt with PBS. There was no significant improvement in mean survival when using just Tfr1^hrt/hrt (0.625 days, p-value=0.26, Table 3). There was, however, a significant improvement in the Tfr1^hrt/hrt with NR group (2.29 days, p-value<0.001). For statistical calculations, lifespan was over 19.6 days for wild-type mice.

For experiment [2], the system named is hearts from Tfr1^hrt/hrt mice. In words: p62 protein levels in hearts of NR-treated mice. Conditions: NR treated vs untreated, FIGS. 20A and 20B. The source says:
Atg9A (Novus Biologicals).

Experiment [3] deals with WT mice. In words: NR rescue experiment, survival of WT mice with NR. Conditions: baseline Tfr1^hrt/hrt with PBS, for calculations lifespan was over 19.6 days for wild-type mice.
Excerpt: as §1, §2, §3

The test system of experiment [4] is Tfr1^hrt/hrt mice. In words: NAD/NADH ratios in tissue with and without NR treatment. Conditions: measurements from tissue.
In experiment [5] the test system is hearts from Tfr1^hrt/hrt mice. In words: UPR^MT mRNA levels in hearts of NR-treated mice (real-time PCR). Conditions: P10 hearts, NR treated vs untreated, FIGS. 19A and 19B. The procedure:
Total heart RNA was isolated from flash-frozen tissue using the RNeasy Fibrous Tissue Mini Kit (Qiagen) and reverse transcribed as described in Schmidt et al. (2008) Cell Metab. […] For the microarray analysis, the Affymetrix GeneChip® Mouse Genome 430 2.0 Array was used. A minimum of 200 ng RNA was used for each sample. RNA samples were processed by the Duke Microarray Shared Resource Services. Transcript abundance was quantified by 2-step real-time PCR, using amplification conditions as described in Schmidt et al. (2008) Cell Metab. […] Primers are summarized in Table 2 and Rpl19 was used as an internal control.
A general note: In qPCR the cycle at which signal appears reflects the starting amount.

Values joined by “and” are separate entries in the source; they are usually repeats but may differ in a detail not shown here. Identical values can stand only once. “Also recorded” adds a separate entry of the source.

Take `NC(=O)c1ccc[n+]([C@@H]2O[C@H](CO)[C@@H](O)[C@H]2O)c1` [NR, nicotinamide riboside]: in experiment [1] (Tfr1^hrt/hrt mice, NR administration, FIG. 7E), the Extension of lifespan result was “up to 5 days”. In addition, in experiment [1] (Tfr1^hrt/hrt mice, NR vs vehicle, FIG. 7E), the Prolongation of lifespans result is “up to 50%”. Further, the “Effect: improvement in mean survival relative to baseline” value in experiment [1] (Tfr1^hrt/hrt with NR, 750 mg/kg IP daily from P5, baseline Tfr1^hrt/hrt with PBS (10.375), 1-way ANOVA model, p<0.001, 750 mg/kg) is 2.29 days and 2.292 days. The “Lifespan of treated mice (in words)” value in experiment [1] (in the absence of iron therapy) is recorded as “increased the lifespan”. In experiment [2], the “Accumulation of p62 in the hearts” value is recorded as “alleviated the accumulation”. Also, the “Effect: survival relative to baseline” value in experiment [3] is recorded as 19.625 days. In addition, the NAD/NADH ratios result in experiment [4] is “inconclusive”. For the same compound, the “Expression of UPR^MT mRNAs (Atf4, Lonp1, Ddit3, Fgf21) in heart” value in experiment [5] is on record as “decreased expression; also recorded: blunted”.
